In patent publication US20250129069A1, “TRIAZOLO WRN INHIBITORS” (Nimbus Wadjet, Inc., priority 2023, published 2025) one finds EC50 and IC50 data, which are given here for nine compounds.

pEC50, pIC50: −log10 of the molar value. Where two headings read alike, the source gives them in different places. Where only a bound is given, the exact number is not on record here.

Assay [1] concerns p21 induction in HCT 116 cells. Description: p21 induction in cells (In-Cell Western, p21/GAPDH ratio). It is filed as cell-based. The conditions noted are these: 24 h compound incubation, read-out: p21_EC50. Put shortly: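 EC50 values come from nonlinear fits of percent activation, defined by the 800/700 nm p21-to-GAPDH ratio scaled between DMSO (low) and internal WRN inhibitor (high) controls. In-Cell Western read after 24 h compound exposure of HCT 116 cells at 37° C. Duplicate 11-point series, 2-fold steps, usually starting at 10 μM.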

Assay [2] deals with human Werner helicase (WRN, amino acids 517-1235 with L1074F point mutation) (Homo sapiens (Human), UniProt Q14191, L1074F). Description: WRN (BV08) ADP-Glo assay. It is filed as biochemical. The note with it: human WRN (aa 517-1235, L1074F), read-out: ADP-Glo_hWRN_IC50. Put shortly:
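ADP-Glo luminescence read after 60 min, 25 °C reaction of 0.15 nM WRN (517-1235, L1074F, Sf9-expressed, tag removed) with 0.1 nM DNA duplex and 5 μM ATP, following 15 min compound preincubation; 20 mM Bicine pH 7.5, 1% DMSO. IC50 from 3- or 4-parameter fit of % inhibition.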
(In ADP-Glo the light output rises with the ADP produced.)

Chain of human Werner helicase (WRN, amino acids 517-1235 with L1074F point mutation) (Q14191 other isoform, or with tags, fused parts or gaps L1074F (already in the parent)): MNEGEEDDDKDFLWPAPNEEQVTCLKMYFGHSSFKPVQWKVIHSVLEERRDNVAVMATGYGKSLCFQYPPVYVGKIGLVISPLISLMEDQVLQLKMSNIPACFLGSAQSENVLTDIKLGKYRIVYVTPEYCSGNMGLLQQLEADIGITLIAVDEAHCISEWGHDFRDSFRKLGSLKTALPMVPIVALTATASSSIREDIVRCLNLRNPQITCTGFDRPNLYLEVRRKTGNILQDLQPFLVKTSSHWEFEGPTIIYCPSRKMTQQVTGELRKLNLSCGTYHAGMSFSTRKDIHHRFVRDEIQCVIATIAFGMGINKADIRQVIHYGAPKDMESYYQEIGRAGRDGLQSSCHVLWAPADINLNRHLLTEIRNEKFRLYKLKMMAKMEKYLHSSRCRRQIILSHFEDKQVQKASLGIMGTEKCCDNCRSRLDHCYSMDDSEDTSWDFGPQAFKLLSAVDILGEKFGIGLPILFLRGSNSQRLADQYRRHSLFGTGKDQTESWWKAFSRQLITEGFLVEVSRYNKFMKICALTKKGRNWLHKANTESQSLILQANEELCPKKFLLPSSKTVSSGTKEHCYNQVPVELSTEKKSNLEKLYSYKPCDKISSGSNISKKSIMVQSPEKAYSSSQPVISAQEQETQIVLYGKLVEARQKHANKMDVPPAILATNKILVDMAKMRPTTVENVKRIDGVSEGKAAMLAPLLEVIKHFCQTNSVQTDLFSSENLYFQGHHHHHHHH

With `CCc1c(N2CCN(C(=O)c3ncnc(C)c3O)[C@H]3CC[C@@H]32)c(=O)c2nn(-c3ccnc(OC)c3)nc2n1CC(=O)NC12CC(OC(F)(F)F)(C1)C2` [Compound I-40, 2-{5-ethyl-6-[(1S,6S)-5-(5-hydroxy-6-methylpyrimidine-4-carbonyl)-2,5-diazabicyclo[4.2.0]octan-2-yl]-2-(2-methoxypyridin-4-yl)-7-oxo-2H,4H,7H-[1,2,3]triazolo[4,5-b]pyridin-4-yl}-N-[3-(trifluoromethoxy)bicyclo[1.1.1]pentan-1-yl]acetamide], in assay [1], the pEC50 is at least 6.30. Also, the pIC50 in assay [2] was 7.30 to 8.30.
Turning to `CCc1c(N2CCN(C(=O)c3ncncc3OC)[C@H]3CC[C@@H]32)c(=O)c2nn(C3=CCOCC3)nc2n1CC(=O)NC12CC(C(C)C)(C1)C2` [Compound I-167, 2-[2-(3,6-dihydro-2H-pyran-4-yl)-5-ethyl-6-[(1S,6S)-5-(5-methoxypyrimidine-4-carbonyl)-2,5-diazabicyclo[4.2.0]octan-2-yl]-7-oxo-2H,4H,7H-[1,2,3]triazolo[4,5-b]pyridin-4-yl]-N-[3-(propan-2-yl)bicyclo[1.1.1]pentan-1-yl]acetamide], the pEC50 in assay [1] (Homo sapiens) is 5.70 to 6.30. Besides, the pIC50 in assay [2] was 7.30 to 8.30.
For `CCc1c(N2CCN(C(=O)c3c(OC)ncc(C)c3O)CC2)c(=O)c2nn(-c3ccnc(OC)c3)nc2n1CC(=O)NC1CC2(C1)CC(C)(C)C2` [Compound I-105, N-{6,6-dimethylspiro[3.3]heptan-2-yl}-2-{5-ethyl-6-[4-(4-hydroxy-2-methoxy-5-methylpyridine-3-carbonyl)piperazin-1-yl]-2-(2-methoxypyridin-4-yl)-7-oxo-2H,4H,7H-[1,2,3]triazolo[4,5-b]pyridin-4-yl}acetamide] the same measures were below 5.30 and 7.30 to 8.30.
For `CCc1c(N2CCN(C(=O)c3cccnc3OC)[C@H]3CC[C@@H]32)c(=O)c2nn(C3=CCOCC3)nc2n1CC(=O)NC12CC(C(C)C)(C1)C2` [Compound I-198, 2-[2-(3,6-dihydro-2H-pyran-4-yl)-5-ethyl-6-[(1S,6S)-5-(2-methoxypyridine-3-carbonyl)-2,5-diazabicyclo[4.2.0]octan-2-yl]-7-oxo-2H,4H,7H-[1,2,3]triazolo[4,5-b]pyridin-4-yl]-N-[3-(propan-2-yl)bicyclo[1.1.1]pentan-1-yl]acetamide] the same measures were at least 6.30 and 7.30 to 8.30.
On the same counts, the results for `CCc1c(C2=CCN(C(=O)c3ncnc(C)c3O)C[C@@H]2C)c(=O)c2nn(-c3ccnc(OC)c3)nc2n1CC(=O)NC12CC(C(C)C)(C1)C2` (single isomer, unassigned) [Compound I-81] are 5.70 to 6.30 and 7.30 to 8.30.
Turning to `CCc1c(N2CCN(C(=O)c3[nH]ncc3OC)[C@H]3CC[C@@H]32)c(=O)c2nn(C3=CCOCC3)nc2n1CC(=O)NC12CC(C(C)C)(C1)C2` [Compound I-166, 2-[2-(3,6-dihydro-2H-pyran-4-yl)-5-ethyl-6-[(1S,6S)-5-(4-methoxy-1H-pyrazole-5-carbonyl)-2,5-diazabicyclo[4.2.0]octan-2-yl]-7-oxo-2H,4H,7H-[1,2,3]triazolo[4,5-b]pyridin-4-yl]-N-[3-(propan-2-yl)bicyclo[1.1.1]pentan-1-yl]acetamide], the pEC50 in assay [1] (Homo sapiens) was 5.70 to 6.30. Besides, the pIC50 in assay [2] is 7.30 to 8.30.
For `CCc1c(N2CCN(C(=O)c3c(OC)ncc(C)c3O)[C@H]3CC[C@@H]32)c(=O)c2nn(-c3ccnc(C)c3)nc2n1CC(=O)NC12CC(C(C)C)(C1)C2` [Compound I-94, 2-{5-ethyl-6-[(1S,6S)-5-(4-hydroxy-2-methoxy-5-methylpyridine-3-carbonyl)-2,5-diazabicyclo[4.2.0]octan-2-yl]-2-(2-methylpyridin-4-yl)-7-oxo-2H,4H,7H-[1,2,3]triazolo[4,5-b]pyridin-4-yl}-N-[3-(propan-2-yl)bicyclo[1.1.1]pentan-1-yl]acetamide] the same measures were at least 6.30 and 7.30 to 8.30.
As for `CCc1c(N2CCN(C(=O)c3csnc3OC)[C@H]3CC[C@@H]32)c(=O)c2nn(C3=CCOCC3)nc2n1CC(=O)NC12CC(C(C)C)(C1)C2` [Compound I-175, 2-[2-(3,6-dihydro-2H-pyran-4-yl)-5-ethyl-6-[(1S,6S)-5-(3-methoxy-1,2-thiazole-4-carbonyl)-2,5-diazabicyclo[4.2.0]octan-2-yl]-7-oxo-2H,4H,7H-[1,2,3]triazolo[4,5-b]pyridin-4-yl]-N-[3-(propan-2-yl)bicyclo[1.1.1]pentan-1-yl]acetamide], in assay [1] (Homo sapiens), the pEC50 was at least 6.30. In addition, in assay [2], the pIC50 was 7.30 to 8.30.
Take `CCc1c(N2CCN(C(=O)c3ncnc(C)c3O)[C@H]3CC[C@@H]32)c(=O)c2nn(-c3ccnc(OC)c3)nc2n1CC(=O)NC12CC(C(F)(F)F)(C1)C2` [Compound I-54, 2-{5-ethyl-6-[(1S,6S)-5-(5-hydroxy-6-methylpyrimidine-4-carbonyl)-2,5-diazabicyclo[4.2.0]octan-2-yl]-2-(2-methoxypyridin-4-yl)-7-oxo-2H,4H,7H-[1,2,3]triazolo[4,5-b]pyridin-4-yl}-N-[3-(trifluoromethyl)bicyclo[1.1.1]pentan-1-yl]acetamide]: the pEC50 in assay [1] was at least 6.30. In addition, in assay [2], the pIC50 is 7.30 to 8.30.
